Results reported in paper PMC12055641, “The Study of Antistaphylococcal Potential of Omiganan and Retro-Omiganan Under Flow Conditions” (Probiotics and Antimicrobial Proteins, 2024).
No end group written: not given here.

Tests used:
S. aureus ATCC 25923 [1] = assay: Biofilm formation in peptide-coated PDMS channels under flow; format: cell-based, Staphylococcus aureus; details: peptide co-immobilized on pDa-coated PDMS channel, 24 h flow
Procedure: (§1) Formation of the biofilm inside the PDMS flow chambers was performed using three peristaltic pumps working simultaneously (LP-pump, Kamush, Lipopharm, Poland) and sterile Tygon® 3350 silicone hoses (2.4 × 0.8 × 0.8 mm) with a length of 30 and 50 cm for inlet and outlet, respectively. Bacterial suspensions were prepared (0.5 × 10^7 CFU/mL) in sterile 50-mL test tubes, which were placed in a heating block at 37 °C. Before experiments, all channels were assessed for tightness and sterilized using a 70% 2-propanol solution (10 min, flow rate 1 mL/min) and rinsed with sterile PBS solution (10 min, flow 0.1 mL/min). The formation of biofilm inside the channels was divided into three stages: (1) adhesion—at this stage S. aureus suspensions were passed through the channels for 4 h at a flow rate of 0.1 mL/min; (2) rinsing—the previously used hoses were replaced with new sterile ones, and the channels were rinsed with sterile PBS solution for 10 min at a flow rate of 0.1 mL/min; (3) biofilm growth—after flushing the channels, the silicone hoses were placed in tubes with MHB medium, which was passed through the channels for 24 h at a flow rate of 0.1 mL/min. All experiments included growth and sterility controls.
(§2) Incorporation of omiganan and retro-omiganan into PDMS channels was conducted using a polydopamine (pDa) coating, as previously described with a slight modification resulting from flow-based experimental model. To do this, the pDa coating was done by rinsing the channels with a solution of dopamine hydrochloride (Sigma-Aldrich, 2 mg/mL) in 10 mM bicin buffer (pH 8.5) for 18 h, 0.3 mL/min in a closed system (Fig. 3A). Then, the channels were rinsed with a sterile solution of demineralized water. Further co-immobilization was conducted using new, sterile silicone hoses connected to flow chambers and test tubes containing aqueous solutions of the peptides (100 µg/mL) pumped through the channels in a closed system for 6 h at 0.3 mL/min (Fig. 3B). Assessment of peptide binding was performed using liquid chromatography (RP-HPLC), by comparing the content of the compounds in the solution before and after incorporation. Waters Alliance e2695 system with a Waters 2998 PDA Detector (software-Empower 3, Waters, Milford, MA, USA) was used. All analyses were carried out on a Waters X-Bridge Shield RP-18 column (3.0 × 100 mm, 3.5 μm particle size, 130 Å pore size) with UV detection at 214 nm and samples (10 μL) were eluted with a linear 10–90% acetonitrile gradient in deionized water over 15 min at 25.0 ± 0.1 °C. The mobile phase flow rate was 0.5 mL/min. Both eluents contained 0.1% (v/v) of TFA. Each peptide sample was analyzed in triplicate. Such functionalized PDMS channels were used for further studies on biofilm formation. […]

[2] = test system: S. aureus ATCC 33591 (MRSA); assay: as above; format: cell-based, Staphylococcus aureus; details: peptide co-immobilized on pDa-coated PDMS channel, 24 h flow
Procedure: as §1, §2

S. aureus ATCC 25923 [3] = assay: microbe, parasite or virus in culture
Method in brief: (§3)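 MICs by CLSI broth microdilution in Mueller–Hinton broth (Ca²⁺ 50 mg/L added for daptomycin), read as lowest concentration inhibiting visible growth. MBEC on 24 h biofilms (0.5 × 10^7 CFU/mL, 37 °C) and MBIC with compound present during 24 h growth, both read by resazurin; triplicates.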

[4] = test system: S. aureus ATCC 33591 (MRSA); assay: microbe, parasite or virus in culture
Method in brief: as §3

[5] = S. aureus ATCC 33591 (MRSA) biofilm treated under flow with Omiganan (half MBEC) for 24 h
[6] = S. aureus ATCC 33591 (MRSA) biofilm treated under flow with Omiganan (half MBEC) for 48 h
[7] = S. aureus ATCC 33591 (MRSA) biofilm treated under flow with Omiganan (half MBEC) for 72 h
[8] = S. aureus ATCC 33591 (MRSA) biofilm treated under flow with Retro-Omiganan (half MBEC) for 24 h
[9] = S. aureus ATCC 33591 (MRSA) biofilm treated under flow with Retro-Omiganan (half MBEC) for 48 h
[10] = S. aureus ATCC 33591 (MRSA) biofilm treated under flow with Retro-Omiganan (half MBEC) for 72 h
[11] = S. aureus ATCC 33591 (MRSA), time 0 h (baseline, before peptide exposure)

| Substance | reduction of bacteria forming biofilm relative to control (S. aureus ATCC 25923 [1]) [%] | reduction of bacteria forming biofilm relative to control [2] [%] | MIC (S. aureus ATCC 25923 [3]; S. aureus 25923, time 0 h (baseline, before peptide exposure)) [µg/mL] | MIC (S. aureus ATCC 25923 [3]; S. aureus 25923 biofilm treated under flow with Omiganan (half MBEC) for 24 h) [µg/mL] | MIC (S. aureus ATCC 25923 [3]; S. aureus 25923 biofilm treated under flow with Omiganan (half MBEC) for 48 h) [µg/mL] | MIC (S. aureus ATCC 25923 [3]; S. aureus 25923 biofilm treated under flow with Omiganan (half MBEC) for 72 h) [µg/mL] | MIC (S. aureus ATCC 25923 [3]; S. aureus 25923 biofilm treated under flow with Retro-Omiganan (half MBEC) for 24 h) [µg/mL] | MIC (S. aureus ATCC 25923 [3]; S. aureus 25923 biofilm treated under flow with Retro-Omiganan (half MBEC) for 48 h) [µg/mL] | MIC (S. aureus ATCC 25923 [3]; S. aureus 25923 biofilm treated under flow with Retro-Omiganan (half MBEC) for 72 h) [µg/mL] | MIC [4, 5] [µg/mL] | MIC [4, 6] [µg/mL] | MIC [4, 7] [µg/mL] | MIC [4, 8] [µg/mL] | MIC [4, 9] [µg/mL] | MIC [4, 10] [µg/mL] | MIC [4, 11] [µg/mL] | MIC (S. aureus ATCC 25923 [3]; ATCC 25923, 0 h) [µg/mL] | MIC (S. aureus ATCC 25923 [3]; ATCC 25923, 24 h) [µg/mL] | MIC (S. aureus ATCC 25923 [3]; ATCC 25923, 48 h) [µg/mL] | MIC (S. aureus ATCC 25923 [3]; ATCC 25923, 72 h) [µg/mL] |
| --- | --- | --- | --- | --- | --- | --- | --- | --- | --- | --- | --- | --- | --- | --- | --- | --- | --- | --- | --- | --- |
| KRRWPWWPWRLI-NH2 [Retro-Omiganan] | 81 | 96 | 8.0 | 8.0 | 8.0 | 8.0 | 8.0 | 8.0 | 8.0 | 8.0 | 8.0 | 8.0 | 8.0 | 8.0 | 8.0 | 16.0 |  |  |  |  |
| ILRWPWWPWRRK-NH2 [Omiganan] | 71 | 98 |  |  |  |  |  |  |  | 8.0 | 8.0 | 8.0 | 8.0 | 8.0 | 8.0 | 16.0 | 16.0 | 8.0 | 8.0 | 8.0 |
